Reference: patent US20230310539A1, “TREATMENT OF DISEASE WITH EPOR ANTAGONIST” (Epo-Med Inc., priority 2020, published 2023)
Where a SMILES comes first, the peptide text is derived from it. Bridges are numbered along the chain shown (N, C = ends). [ ]: non-standard residue; d: D form. Ala(benzothiazol-2-yl) = N[C@@H](Cc1nc2ccccc2s1)C(=O)O; NH = not defined here

T1: EpoR in HCC1806 cells (Homo sapiens, UniProt P19235)
T1 construct: human breast cancer derived HCC1806 cells (ATCC, CRL-2335); host or cells: HCC1806
T1 sequence (P19235 25-508): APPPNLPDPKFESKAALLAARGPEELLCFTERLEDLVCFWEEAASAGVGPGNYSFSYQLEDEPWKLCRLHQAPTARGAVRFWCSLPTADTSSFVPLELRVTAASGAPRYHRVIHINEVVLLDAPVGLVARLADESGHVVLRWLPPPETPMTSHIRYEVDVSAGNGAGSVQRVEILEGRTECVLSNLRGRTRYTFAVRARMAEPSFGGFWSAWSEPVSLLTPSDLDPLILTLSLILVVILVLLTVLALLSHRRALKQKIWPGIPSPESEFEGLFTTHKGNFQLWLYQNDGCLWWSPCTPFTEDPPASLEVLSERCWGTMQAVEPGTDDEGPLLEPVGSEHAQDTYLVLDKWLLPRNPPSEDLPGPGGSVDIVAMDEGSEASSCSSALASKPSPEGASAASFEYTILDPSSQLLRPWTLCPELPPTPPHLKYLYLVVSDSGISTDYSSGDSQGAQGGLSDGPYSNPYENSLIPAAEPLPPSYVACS

T2: EpoR in AsPC-1 cells (Homo sapiens, UniProt P19235)
T2 construct: The test used human pancreatic cancer derived AsPC-1 cells (ECACC, 96020930); host or cells: AsPC-1
T2 sequence (P19235 25-508): T1 sequence (P19235 25-508)

T3: EpoR in bone marrow cells (Mus musculus, UniProt P14753)
T3 construct: tissue Japan SLC; host or cells: mouse (ICR, female) femur bone marrow cells
T3 sequence (P14753 25-507): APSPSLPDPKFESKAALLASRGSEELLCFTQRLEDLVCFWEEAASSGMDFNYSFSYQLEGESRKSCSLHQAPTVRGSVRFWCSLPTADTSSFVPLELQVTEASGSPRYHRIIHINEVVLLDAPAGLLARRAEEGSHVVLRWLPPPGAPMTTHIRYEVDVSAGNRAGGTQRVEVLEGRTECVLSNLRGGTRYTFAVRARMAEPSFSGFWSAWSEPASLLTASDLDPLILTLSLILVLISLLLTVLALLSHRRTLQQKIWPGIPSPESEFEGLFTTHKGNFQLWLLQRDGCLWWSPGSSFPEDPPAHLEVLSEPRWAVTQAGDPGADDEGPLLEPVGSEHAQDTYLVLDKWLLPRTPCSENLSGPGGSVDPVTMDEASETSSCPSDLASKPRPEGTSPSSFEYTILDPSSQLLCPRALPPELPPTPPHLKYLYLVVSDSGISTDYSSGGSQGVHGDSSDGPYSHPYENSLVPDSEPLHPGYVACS

T4: human βcR (CD131, CSF2RB) (human, UniProt P32927 17-897)
T4 construct: Endogenous on AsPC-1 and HCC1806 cells; also called βc receptor; IL3RB
T4 sequence: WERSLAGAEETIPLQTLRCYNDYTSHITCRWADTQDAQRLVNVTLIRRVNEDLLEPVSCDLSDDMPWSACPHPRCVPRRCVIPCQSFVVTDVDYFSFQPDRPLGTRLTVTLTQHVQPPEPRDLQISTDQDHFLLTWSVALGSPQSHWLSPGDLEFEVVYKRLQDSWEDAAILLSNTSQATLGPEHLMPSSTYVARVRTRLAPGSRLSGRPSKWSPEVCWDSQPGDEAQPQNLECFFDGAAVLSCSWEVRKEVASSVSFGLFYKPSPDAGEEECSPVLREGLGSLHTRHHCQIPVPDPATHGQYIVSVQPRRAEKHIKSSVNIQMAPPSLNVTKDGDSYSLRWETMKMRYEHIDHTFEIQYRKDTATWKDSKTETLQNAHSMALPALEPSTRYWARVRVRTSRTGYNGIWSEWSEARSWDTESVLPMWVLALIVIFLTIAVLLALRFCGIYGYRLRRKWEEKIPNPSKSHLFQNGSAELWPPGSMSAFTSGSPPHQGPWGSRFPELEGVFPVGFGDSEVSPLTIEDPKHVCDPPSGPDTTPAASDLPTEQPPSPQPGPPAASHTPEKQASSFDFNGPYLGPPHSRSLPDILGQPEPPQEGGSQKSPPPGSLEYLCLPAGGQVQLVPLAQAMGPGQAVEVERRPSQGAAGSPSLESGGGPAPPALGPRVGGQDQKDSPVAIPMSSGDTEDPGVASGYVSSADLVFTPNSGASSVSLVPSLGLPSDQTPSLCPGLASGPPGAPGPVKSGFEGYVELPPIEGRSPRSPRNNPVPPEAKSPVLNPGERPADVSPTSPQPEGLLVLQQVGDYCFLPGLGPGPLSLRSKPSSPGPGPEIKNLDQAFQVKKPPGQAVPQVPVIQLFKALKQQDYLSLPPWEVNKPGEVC

B1: human erythropoietin receptor (EpoR), wild-type (receptor)
chain: T1 sequence (P19235 25-508)
notes: Endogenous on human AsPC-1, HCC1806 and UT-7/Epo cells, or overexpressed from a vector in AsPC-1 and 293T cells; also called Epo receptor; wild-type EpoR
B2: Ac-SCHYGPLT (2-benzothiazolylalanine)VCK-NH-(biotin) (GT-11352) (peptide)
peptide: Ac-SCHYGPLT[Ala(benzothiazol-2-yl)]VCK-{NH-biotin}
modifications: disulfide 2-11; reading uncertain; also: printed as Ac-SCHYGPLT (2-benzothiazolylalanine)VCK-NH-(biotin)
notes: Synthetic, biotin-labeled peptide; also called anti-EpoR peptide

Experiments:
[1] = Body weight of AsPC-1 cancer bearing mice; assay type: in vivo, mouse; conditions: ERA-350 0.2 mg/day intraperitoneally, twice a week for 4 weeks
Procedure: AsPC-1 cells cultured in the similar manner as Example 1 were collected, suspended in RPMI-1640 medium containing 10% Matrigel (BD Bioscience, 354234), and transplanted subcutaneously to the right side on the back of a 6-week-old male nude mouse (Japan SLC, BALB/cSlc-nu/nu) (5×10^6/0.1 mL/mouse). The length (L) and width (W) of the tumor were measured using a digital caliper. When the tumor volume (V) calculated from the formula V=L×W^2/2 reached about 150 to 200 mm^3, the mice were separated into groups and administered with test compounds (ERA-350 and ERA-350+gemcitabine). Saline was administered to a control group. The compounds were administered intraperitoneally (0.1 mL/mouse, 6 mice/test compound) once daily (0.2 mg/day for ERA-350, and 1 mg/day for gemcitabine), twice a week for 4 weeks. The tumor size and body weight were measured twice a week to monitor the effect of the administration of test compounds.

[2] = molecular target: T1, EpoR in HCC1806 cells; assay: Immunofluorescence co-localization of biotin-labeled anti-EpoR peptide with EpoR in HCC1806 cells; assay type: cell-based; conditions: 100 μM, 1 hour at 37° C.
Procedure: (§1) The test used human pancreatic cancer derived AsPC-1 cells (ECACC, 96020930) and human breast cancer derived HCC1806 cells (ATCC, CRL-2335) that were passaged (twice/week) under the condition of 37° C. and 5% CO2-95% air using RPMI-1640 medium (Sigma, R8758-500 ML) containing 10% fetal bovine serum (biowest, S182H-500) and 1 mM sodium pyruvate (gibco, 11360-070).
(§2) These bone marrow cells (2×10^6 cells) and cancer cells (AsPC-1 cells and HCC1806 cells; both 2×10^3 cells) were incubated with GT-11352 (biotin labeled, 100 μM) for 1 hour at 37° C. in the presence or absence of recombinant human erythropoietin (rhEpo) (10 U/mL). Subsequently, the cells were fixed with formalin, blocked, and subjected to immunofluorescent staining. The nucleus was stained by DAPI staining. The cells were observed through fluorescence with a microscope (Keyence, BZ-X800). The following antibodies were used. • EpoR detection: rat anti-EpoR antibody (Merck, clone BCO-3H2) and anti-rat IgG-Alexa® Fluor 594 (Abcam, ab150160) • GT-11352 detection: streptavidin-FITC (Tokyo Chemical Industry, S0966)

[3] = molecular target: T2, EpoR in AsPC-1 cells; assay: Immunofluorescence co-localization of biotin-labeled anti-EpoR peptide with EpoR in AsPC-1 cells; assay type: cell-based; conditions: 100 μM, 1 hour at 37° C.
Procedure: as §1, §2

[4] = molecular target: T3, EpoR in bone marrow cells; assay: Immunofluorescence co-localization of biotin-labeled anti-EpoR peptide with EpoR in bone marrow cells; assay type: cell-based; conditions: 100 μM, 1 hour at 37° C.
Procedure: Bone marrow cells were harvested from mouse femur (Japan SLC, ICR, female).
as §2

[5] = molecular target: T4, human βcR (CD131, CSF2RB); assay: co-immunoprecipitation from membrane fractions of AsPC-1 cells (IP with anti-EpoR VP-2E8, blot with anti-EpoR BCO-3H2 or anti-βcR polyclonal antibody)
Procedure: The stable expression strain was cultured and collected. Membrane fractions were prepared using a commercially available membrane protein extraction kit (Mem-PER Plus Membrane Protein Extraction Kit, Thermo Scientific).

[6] = molecular target: B1; assay: immunofluorescence colocalization on AsPC-1 and HCC1806 cells, GT-11352 100 µM, no rhEpo

Molecule: CSCC[C@@H]1NC(=O)[C@@H]2CCCN2C(=O)CNC(=O)[C@H](Cc2ccc(O)cc2)NC(=O)[C@H](Cc2c[nH]cn2)NC(=O)[C@@H](NC(=O)[C@H](CO)NC(C)=O)CSSC[C@@H](C(=O)N[C@@H](CCCCN)C(N)=O)NC(=O)[C@H](C(C)C)NC(=O)[C@H](Cc2nc3ccccc3s2)NC(=O)[C@H]([C@@H](C)O)NC1=O [ERA-350] (Ac-SCHYGPMT[Ala(benzothiazol-2-yl)]VCK-NH2; disulfide 2-11)
- Body weight [1]: did not affect the body weight

Molecule: Ac-SCHYGPLT (2-benzothiazolylalanine)VCK-NH-(biotin) [GT-11352]
- Co-localization of EpoR and peptide ([2]; absence of erythropoietin): exhibited colocalization
- Co-localization of EpoR and peptide ([2]; presence of rhEpo 10 U/mL): exhibited colocalization
- Co-localization of EpoR and peptide ([3]; absence of erythropoietin): exhibited colocalization
- Co-localization of EpoR and peptide ([3]; presence of rhEpo 10 U/mL): exhibited colocalization
- Co-localization of EpoR and peptide ([4]; absence of erythropoietin): exhibited colocalization
- Co-localization of EpoR and peptide ([4]; presence of rhEpo 10 U/mL): did not exhibit co-localization

Molecule: B1
- binding result [5]: binds

Molecule: B2
- binding result [6]: binds
